The source of these data is paper PMC10451032 (ACS Central Science, 2023).

Experiment [1] deals with rNsp5^WT recombinant SARS-CoV-2. Nature of the experiment: microbe, parasite or virus in culture. It counts as cell-based. Conditions: Severe acute respiratory syndrome coronavirus 2.
For experiment [2], the system named is triple mutant L50F/E166A/L167F. Conditions: cited from earlier work.
For experiment [3], the system named is triple mutant L50F/E166A/L167F. Conditions: cited from earlier work. This is another data set of the same source.

Molecules are shown by their SMILES.

Broadly, the EC50 is the midpoint of the concentration-response curve.

Take `CC(C)(C)[C@H](NC(=O)C(F)(F)F)C(=O)N1C[C@H]2[C@@H]([C@H]1C(=O)N[C@H](C#N)C[C@@H]1CCNC1=O)C2(C)C` [nirmatrelvir]: the EC50 in experiment [1] is 0.0255 µM. The “IC50 increase in the enzymatic assay” value in experiment [2] is on record as 72 fold. Moreover, in experiment [3], the “EC50 increase in the antiviral assay” value is given as 51 fold.
